# Earlier results in US8268828B2, “Inhibitors of the chemokine receptor CxCR3” (Sanofi, priority 2008, dated 2012).
# Legend:
# [1] = tested on: Collagen Induced Arthritis (CIA); conditions: CIA mice
SMILES,reduction of the number of metastases (metastatic breast cancer; mouse model of metastatic breast cancer),direct effect on proliferation (metastatic breast cancer; tumor cells),classical picture of inflammation (swollen red joints in limbs) [1],leukocytic infiltration of joints ([1]; histologic evaluation)
CCOc1ccc(-n2c([C@@H](C)N(Cc3cccnc3)C(=O)Cc3ccc(OC(F)(F)F)cc3)nc3ncccc3c2=O)cc1 [AMG-487],60%,no direct effect,–,–
Cc1ccc(-c2ccc3c(c2)C=C(C(=O)Nc2ccc(C[N+](C)(C)C4CCOCC4)cc2)CCC3)cc1.[Cl-] [TAK-779],–,–,ablated,blocked
